Results as given in ChEMBL document CHEMBL4825711, “Necrostatins regulate apoptosis, necroptosis, and inflammation in cisplatin-induced nephrotoxicity in LLC-PK1 cells” (2021).
Activity calls are given as the source filed them. No cut-off for these calls is given here.

What was measured:
LLC-PK1 [1] = assay: Protection against cisplatin-induced nephrotoxicity in pig LLC-PK1 cells assessed as inhibition of apoptosis by measuring reduction in green stained cells at 50 uM measured after 24 hrs in presence of cisplatin by Tali image based cytometric analysis; assay type: functional, cell-based; details: Sus scrofa
LLC-PK1 [2] = assay: Inhibition of cisplatin-induced p38 MAPK phosphorylation in pig LLC-PK1 cells at 50 uM measured after 24 hrs in presence of cisplatin by western blot analysis; assay type: cell-based; details: Sus scrofa
LLC-PK1 [3] = assay: Protection against cisplatin-induced nephrotoxicity in pig LLC-PK1 cells assessed as cell viability at 50 uM measured after 24 hrs in presence of cisplatin; assay type: functional; details: Sus scrofa, read-out: Activity
LLC-PK1 [4] = assay: Inhibition of cisplatin-induced JNK phosphorylation in pig LLC-PK1 cells at 50 uM measured after 24 hrs in presence of cisplatin by western blot analysis; assay type: cell-based; details: Sus scrofa
LLC-PK1 [5] = assay: Inhibition of cisplatin-induced ERK phosphorylation in pig LLC-PK1 cells at 50 uM measured after 24 hrs in presence of cisplatin by western blot analysis; assay type: cell-based; details: Sus scrofa
LLC-PK1 [6] = assay: Protection against cisplatin-induced nephrotoxicity in pig LLC-PK1 cells assessed as inhibition of apoptosis by measuring decrease in cleaved caspase-3 level at 50 uM measured after 24 hrs in presence of cisplatin by western blot analysis; assay type: functional, cell-based; details: Sus scrofa
LLC-PK1 [7] = assay: Protection against cisplatin-induced nephrotoxicity in pig LLC-PK1 cells assessed as increase in cell viability measured after 24 hrs in presence of cisplatin; assay type: functional, cell-based; details: Sus scrofa, dose 3.125-50 µM
LLC-PK1 [8] = assay: Protection against cisplatin-induced nephrotoxicity in pig LLC-PK1 cells assessed as inhibition of apoptosis by measuring red-stained dead cells at 50 uM measured after 24 hrs in presence of cisplatin by Tali image based cytometric analysis; assay type: functional, cell-based; details: Sus scrofa
LLC-PK1 [9] = assay: Protection against cisplatin-induced nephrotoxicity in pig LLC-PK1 cells assessed as cell viability at 1000 uM measured after 24 hrs in presence of cisplatin; assay type: functional; details: Sus scrofa, read-out: Activity
LLC-PK1 [10] = assay: Protection against cisplatin-induced nephrotoxicity in pig LLC-PK1 cells assessed as increase in cell viability at 50 to 1000 uM measured after 24 hrs in presence of cisplatin; assay type: functional, cell-based; details: Sus scrofa, dose 50-1000 µM

SMILES	Activity (LLC-PK1 [1])	inhibition (LLC-PK1 [2])	viability at 50 µM (LLC-PK1 [3])	inhibition (LLC-PK1 [4])	inhibition (LLC-PK1 [5])	Activity (LLC-PK1 [6])	Activity (LLC-PK1 [7])	Activity (LLC-PK1 [8])	viability at 1000 µM (LLC-PK1 [9])	Activity (LLC-PK1 [10])
COc1ccc([C@H]2[C@@H]3CCc4ccc(OC)cc4C3=NN2C(C)=O)cc1	Active	Active	84.5%	Active	Active	Active	–	–	–	–
CN1C(=O)C(Cc2c[nH]c3ccccc23)NC1=S (stereo not drawn) [NECROSTATIN]	Active	Active	90.5%	Active	Active	Active	Dose-Dependent Effect	inactive	–	–
CC(=O)N[C@@H](CS)C(=O)O [ACETYLCYSTEINE]	–	–	–	–	–	–	–	–	89.4%	Dose-Dependent Effect
COc1ccc([C@H]2[C@H]3CCc4ccc(OC)cc4C3=NN2C(C)=O)cc1	Active	Active	87.5%	Active	Active	Active	Dose-Dependent Effect	–	–	–
